Experiments:
KCC2 expression [1] = assay: Western blot of KCC2 in cultured WT human neurons; assay type: cell-based
immature mouse neurons = assay: Gramicidin-perforated patch recording of EGABA in DIV6-7 immature mouse neurons; assay type: cell-based
[2] = tested on: KCC2 expression (KCC2-2A-luciferase reporter); assay: KCC2-2A-luciferase reporter compound screening with RTT KCC2 reporter neurons; assay type: cell-based, human; settings: MECP2-null RTT human KCC2 reporter neurons; LINCS, SMART, ICCB libraries; Luc/CTG normalized to in-plate DMSO; hit = B score >3
Description: The RTT KCC2-2A-luciferase reporter neurons were treated with the test compounds from the LINCS kinase inhibitor library and IRSF SMART compound library and incubated before being lysed. The cell lysate was divided into two parts to measure luciferase signal (KCC2 translation) and Cell-Titer Glow (CTG, amount of ATP). The luciferase signal was normalized to CTG for each well, and the Luc/CTG ratio was normalized to the in-plate DMSO negative control to calculate fold change ratio.
Additional screens for reporter activation in the MECP2-null RTT human KCC2 reporter neurons (isogenic to the WT reporter cells used above) were performed with the LINCS and SMART libraries as well as the ICCB known bioactive library and identified hits as compounds with B score >3.
The cells were dissociated with Accutase and resuspended in 10 ml neuronal differentiation medium to count cells. The cells were then diluted to the final density of 200,000 to 500,000 cells/ml. Matrigel was added to the cell suspension at a dilution ratio of 1:300 to promote cell adhesion after plating. AraC was added to cell suspension at the concentration of 2 μM to inhibit cell division. The cells were plated into 96-well plates with an automated cell seeding machine using the following protocol: The neuron flask was washed with PBS. The neurons were digested off the plate with Accutase for 30 minutes at 37° C. Next, the dissociated cells were collected and spun down at 750 rpm for 5 minutes. The cell pellet was dissociated by gentle trituration with P1000 pipet and the cells were resuspended with 10 ml of neuronal medium. Then, the cells were filtered through a 40 μm cell strainer (Falcon) to get rid of clumps. The resulting single-cell suspension was counted using a Countess automated cell counter (Invitrogen Countess Automated Cell Counter, Catalog no. C10227). The neurons were resuspended with neuronal medium to 10× of the destination density (100,000 cells to 400,000 cells per ml). The cells were plated with a multichannel pipette, or proceeded to the machine-plating protocol described below:
The day after cell seeding, small molecule compounds from the IRSF (International Rett Syndrome Foundation) library were prepared at a concentration of 1 mM and dispensed into a blank V-bottomed test plates at 2 μl per well. Compound solvent DMSO was included in every plate as control. Using a liquid handling robot, about 80 μl of culture medium were discarded. Neuronal medium in the volume of 200 μl was added to the V-bottom test plate that contained 2 μl of 1 mM compounds, and mixed with compounds by pipetting up-and-down 3 times. The medium that contained the 10 μM compounds was then applied to the neuronal cell culture and incubated for 2 weeks before cell lysis and luciferase assay were performed.
(§1) The cells were dissociated with Accutase, resuspended in 10 ml neuronal differentiation medium to count cells. the final cell seeding density was 20 k-40 k cells per well for 96-well plates, and ˜10 k cells per well for 384-well plates. Matrigel was added to the cell suspension at a dilution ratio of 1:300 to promote cell adhesion after plating. AraC were added to the cell suspension at the concentration of 0.5 μM to inhibit astroglial cell division. The cells were dispensed into 96-well or 384-well plates (Coming) using a BioTek EL406 plate dispenser. […] The neurons were incubated with the compounds at 37° C./5% CO2 for a week before the luciferase assay.
The cells used for luciferase assay were KCC2 reporter neurons differentiated for 4 weeks, and treated with drug in 96-well format for 2 weeks. Cell density was between 20 k-40 k cells per well.
On the day of the luciferase assay, the cells were washed with PBS for two times, and 100 μl of cell lysis buffer was applied to the washed cells. The cell plates were transferred to a rocker to shake for 10 minutes in order to fully lyse the cells.

KCC2 expression [3] = assay: Western blot of KCC2 in cultured human RTT neurons; assay type: cell-based; settings: cultured human RTT neurons; Western blot
Description: Protein samples were collected from cultured brain slices or cultured neurons in 12-well format with RIPA lysis buffer (in mM: 150 NaCl, 25 Tris-HCl, 1 EDTA, 1% NP-40, 1% sodium deoxycholate, 0.1% SDS, with protein kinase inhibitor and protease inhibitor, pH adjusted to 7.6). A sonication step was applied to homogenize tissue and extract protein, followed by a 10 minute centrifugation at 4° C. […] The PVDF membrane was blocked for 30 minutes with 5% milk in TBS+0.1% Tween 20 (TBST), and incubated overnight at 4° C. with primary antibodies diluted in TBST-milk at the following concentrations: KCC2 (1:2000, Millipore), NKCC1 (1:1000, Iowa Hybridoma bank), α-Tubulin (1:4000, Abcam), GAPDH (1:3000, Abcam), Actin (1:2000, Sigma Aldrich #A2066). The membrane was rinsed with TBST three times to wash off excess antibodies, and then incubated in secondary HRP antibodies in TBST-milk at 1:5000 concentration.
The PVDF membrane was then stripped using the Re-blot plus strong solution (Millipore), and re-immunoblotted for NKCC1 (˜150 kDa) to acquire KCC2/NKCC1 ratio. The area and intensity of protein signal was determined using ImageJ. The relative KCC2 and NKCC1 expression were calculated by normalizing protein signal to GAPDH or Tubulin loading control.

[4] = tested on: KCC2 expression (KCC2-2A-luciferase reporter); assay: KCC2-2A-luciferase reporter compound screening with wild type KCC2 reporter neurons; assay type: cell-based; settings: WT human KCC2 reporter neurons; LINCS 0.5 μM, IRSF/SMART and ICCB 10 μM, one week; Luc/CTG normalized to in-plate DMSO; hit = B score >3
Excerpt: In addition, CRISPR/Cas9 genome editing technology was utilized to insert a 2A-luciferase reporter gene directly before the stop codon of the endogenous KCC2 locus in human ES cells, thus creating wild type (WT) cells isogenic to the MECP2-null RTT human KCC2 reporter neurons. KCC2 expression reporter human neurons were differentiated from the gene-targeted ES cells and utilized as the substrate for unbiased compound screening (FIG. 6A; see also FIG. 1A).
Gene-targeted KCC2 reporter cells were used in a HTS pipeline to screen for small molecule compounds that enhance KCC2 gene expression (FIG. 1B; note that reporter neurons were adapted to 384 well format for some screens, and the same workflow was used both for WT KCC2 reporter neurons and RTT KCC2 reporter neurons). Six replicate screens were performed in WT KCC2 reporter neurons using the LINCS and SMART libraries as well as the ICCB known bioactive library (FIG. 6B).
as §1
For some screens, on the day of the luciferase assay, the cells were washed with PBS three times using a BioTek EL406 plate washer. Cell lysis buffer (Promega, E1941, 1:5 diluted with water) was added at a volume of 100 μl per well for 96-well plates and 30 μl per well for 384-well plates, and incubated at room temperature for 10 minutes to lyse the cells. A fraction of the cell lysate (30 ul for 96-well, 5 ul for 384-well) was transferred to a new white, opaque plate and Cell Titer-Glo (CTG, Promega, G7572, diluted 2:5 in water) was added and incubated for 20 minutes at room temperature. CTG measures cellular ATP levels as a surrogate for cell viability. The reporter luciferase signal was assayed in the original source plate using Bright-Glo reagent per the manufacturer's protocol (Promega, E1501, 10 ul for 96-well plates, 3 ul for 384-well plates). Assay readouts were performed on a Tecan M1000 Infinite plate reader. For data analysis, the luciferase signal was normalized to the CTG signal to control for number of live cells per well. The Luc/CTG ratio data were then normalized to the in-plate DMSO control to calculate the signal induction fold change. Screening data were processed with CellHTS2 software package to calculate B-score (94)

human RTT neurons [5] = assay: Membrane capacitance (Cm) of cultured human RTT neurons; assay type: cell-based; settings: cultured human RTT neurons; vs DMSO or MeBIO control
Excerpt: (§2) Moreover, a reduction in the number or the strength of excitatory glutamatergic synapses in RTT neurons has been observed in postmortem RTT patient brain samples (30), mouse models of RTT (53), and human stem cell-derived RTT neurons (54). Electrophysiology recording was utilized to assess whether KEECs could rescue the deficits in EGABA and excitatory synaptic transmission of RTT neurons. […] We further investigated whether the beneficial effect of KEECs is a direct result of the increases in neuronal KCC2 gene expression. […] Deficits in a number of morphological measurements, including nuclei size and neurite complexity and branching, are hallmarks of RTT neurons (54-56). […] To validate the morphological measurements, electrophysiological measurements of the neuronal membrane capacitance (Cm), an indicator of neuronal cell size (57) that is reduced in RTT neurons, were conducted.
(§3) Functionally mature human neuron cultures were obtained by seeding human WT or isogenic RTT NPCs on a layer of primary mouse astrocyte culture as previously described (57). In the cultured WT human neurons, KCC2 expression reaches mature level between 2-3 months (7). We therefore treated the WT or RTT human neurons 8-12 weeks in culture, with compounds for a duration of two weeks before conducting whole-cell patch-clamp recording. The extracellular bath solution, that perfused the recording chamber, consists of (in mM): 120 NaCl, 30 glucose, 25 HEPES, 5 KCl, 2 CaCl2, 1 MgCl2. The pH was adjusted to 7.3 with NaOH. The high-chloride internal pipette solution consists of (in mM): 147 KCl, 5 Na-phosphocreatine, 2 EGTA, 10 HEPES, 4 MgATP, and 0.5 Na2GTP; the pH 7.3 was adjusted with KOH. To record mini EPSC, the membrane potential was held at −70 mV, and 0.5 μM of TTX and 50 μM Picrotoxin were applied with bath solution to block action potential and GABAergic synaptic transmission.

human RTT neurons [6] = assay: mEPSC whole-cell patch-clamp recording in cultured human RTT neurons; assay type: cell-based; settings: cultured human RTT neurons
Excerpt: as §2, §3
To evoke GABA response, a pipette filled with 100 μM GABA solution was positioned 5-10 μm away from the neuronal cell body. Air pulses at the pressure of 10 p.s.i. and duration of 100 ms were generated with a Picrospritzer (Parker Instrumentation) to puff GABA solution onto neuronal cell body. Neuronal response to GABA puffs were recorded at different membrane holding potentials from −90 mV to +30 mV, and the EGABA values were calculated with linear regression. Electrophysiological signals were recorded with Multiclamp 700A patch-clamp amplifier and data were collected with Clamp 9 software (Molecular Devices, Palo Alto, CA), sampled at 10 kHz and filtered at 1 KHz. Off-line data analyses of mEPSC synaptic events were performed with MiniAnalysis software (Synaptosoft, Decator, GA). All experiments were performed at room temperature. A sample size of 5-8 neurons was used for EGABA measurements, while a sample size of 14-19 neurons was used for mEPSC measurements. All data were presented as mean±SEM. ANOVA test followed by the Bonferroni correction were used for statistical analysis. The Kolmogorov-Smirnov test was employed to compare the cumulative distribution between two datasets.

KCC2 expression [7] = assay: Western blot of KCC2 in organotypic mouse brain slices; assay type: cell-based; settings: organotypic neonatal mouse brain slices, treated 7 days, vs DMSO, MeBIO or medium-only control

## Nc1cccc(-c2cc3c(Oc4cccc(O)c4)ncnc3[nH]2)c1 [TWS-119, 3-[6-(3-Amino-phenyl)-7H-pyrrolo[2,3,-d]pyrimidin-4-yloxy]-phenol]
KCC2 expression [1]; WT neurons, 0.03 μM
  increase of KCC2 expression: more than two-fold
Immature mouse neurons; DIV6-7 immature mouse neurons, untreated about −50 mV
  EGABA after treatment: about −70 mV
Immature mouse neurons; DIV6 cultured immature mouse neurons
  significant hyperpolarizing shift in EGABA: induces significant hyperpolarizing shift in EGABA
[2]
  B Score: 3.64
KCC2 expression [3]
  KCC2 expression: significant increase in KCC2 expression

## CC(C)(O)[C@H]1O[C@H]2CC[C@@]3(C)[C@@](O)(CC[C@H]4Cc5c([nH]c6ccccc56)[C@@]43C)C2=CC1=O [Paxilline, (2R,4bS,6aS,12bS,12cR,14aS)-5,6,6a,7,12,12b,12c,13,14,14a-Decahydro-4b-hydroxy-2-(1-hydroxy-1-methylethyl)-12b,12c-dimethyl-2H-pyrano[2″,3″:5',6']benz[1',2':6,7]indeno[1,2-b]indol-3(4bH)-one]
[4]
  B Score: 4.1
[2]
  B Score: 4.1

## C[C@H](NCc1ccc(OCc2cccc(F)c2)cc1)C(N)=O [Safinamide, (2S)-2-[[4-[(3-fluorophenyl)methoxy]phenyl]methylamino] propanamide]
[4]
  B Score: 4.82
[2]
  B Score: 4.82

## COC1=CC(=O)O[C@@H](/C=C/c2ccc3c(c2)OCO3)C1 [Methysticin, (2R)-2-[(E)-2-(1,3-Benzodioxol-5-yl)ethenyl]-4-methoxy-2,3-dihydropyran-6-one]
[4]
  B Score: 7.17
[2]
  B Score: 7.17

## CN1C(=O)/C(=C2\Nc3ccccc3\C2=N/O)c2ccc(Br)cc21 [MeBIO]
Human RTT neurons [5]
  membrane capacitance (Cm): failed to change Cm
KCC2 expression [1]; cultured WT human neurons (WIBR1), Western blot
  KCC2 expression: failed to activate KCC2 expression
Human RTT neurons [6]
  frequency of mEPSCs: failed to rescue synaptic deficits in RTT neurons
KCC2 expression [7]
  KCC2 protein level: does not alter KCC2 expression

— patent US12053465B2, “KCC2 expression enhancing compounds and uses thereof” (Whitehead Institute for Biomedical Research, priority 2017, dated 2024)
